Common to all, as to assay: relative viability (nuclei count vs DMSO), 5 days (fraction); higher = more cells survive
Compound in test [1]: C1CCC(CC1)N(CCNCCC2=C3C(=C(C=C2)O)NC(=O)CO3)C(=O)CCNCCC4=CC(=C(C=C4)Cl)Cl [AZ505]
A digest of the protocol: (§1)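 MetaXpress counted nuclei in 4× images of lung cancer cell lines that had been fixed, permeabilised and Hoechst-stained in one step. Before that, cells in 1536-well plates were kept overnight at 37 °C, pinned with five √10-spaced library-drug doses on vehicle-anchored plates, and cultured 5 days without medium change. Viability takes treated-well nuclei over vehicle-well nuclei and uses the median across plates. Plates were accepted only at control CV below 25% and at least one doubling.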

Compound in test [2]: Cn1c(=O)n(-c2ccc(C(C)(C)C#N)cc2)c2c3cc(-c4cnc5ccccc5c4)ccc3ncc21 [Dactolisib]
A digest of the protocol: as §1

Compound in test [3]: C1CCC(CC1)N(CCNCCC2=C3C(=C(C=C2)O)NC(=O)CO3)C(=O)CCNCCC4=CC(=C(C=C4)Cl)Cl [AZ505] + Cc1nc(NC(=O)N2CCC[C@H]2C(N)=O)sc1-c1ccnc(C(C)(C)C(F)(F)F)c1 [Alpelisib] (partner 2 µM)
A digest of the protocol:
(§2)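 Relative viability divides the nuclei count in treated wells by that in vehicle wells. Lung cancer cell lines were seeded in 1536-well plates, dosed by pin tool the next day, and fixed and stained after 5 days in one step with final 0.05% Triton X-100, 1% formaldehyde and 1 ug/ml Hoechst. Dosing was a single drug or a fixed anchor-drug dose plus five library-drug doses (not always all listed) in √10 steps, and values are medians of duplicate plates imaged at 4×.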

Compound in test [4]: Cn1c(=O)n(-c2ccc(C(C)(C)C#N)cc2)c2c3cc(-c4cnc5ccccc5c4)ccc3ncc21 [Dactolisib] + Nc1nc2[nH]cc(CCc3ccc(C(=O)N[C@@H](CCC(=O)O)C(=O)O)cc3)c2c(=O)[nH]1 [Pemetrexed] (partner 0.2 µM)
A digest of the protocol: as §2

Take SK-MES-1: the relative viability was determined as 0.92 in test [1] (0.08 µM); 0.953 in test [1] (0.253 µM); 0.909 in test [1] (0.8 µM); 0.943 in test [1] (2.53 µM); 0.935 in test [1] (8 µM); 1.1 in test [2] (0.002 µM). In addition, the relative viability was 0.983 in test [2] (0.006325 µM); 0.914 in test [2] (0.02 µM); 0.542 in test [2] (0.06325 µM); 0.339 in test [2] (0.2 µM); 0.881 in test [3] (first compound 0.08 µM); 0.954 in test [3] (first compound 0.253 µM). The relative viability in test [3] (first compound 0.8 µM) turned out to be 0.922; in test [3] (first compound 2.53 µM), 0.873; in test [3] (first compound 8 µM), 0.964; in test [4] (first compound 0.002 µM) it was 0.993; in test [4] (first compound 0.006325 µM) it was 0.837; in test [4] (first compound 0.02 µM) it was 0.847. Also, the relative viability is 0.417 in test [4] (first compound 0.06325 µM) and 0.367 in test [4] (first compound 0.2 µM).

Take NCI-H2087: the relative viability came out at 0.883 in test [1] (0.08 µM); 0.987 in test [1] (0.253 µM); 0.978 in test [1] (0.8 µM); 0.996 in test [1] (2.53 µM); 0.982 in test [1] (8 µM); 1.38 in test [2] (0.002 µM). Moreover, the relative viability is 1.22 in test [2] (0.006325 µM); 1.07 in test [2] (0.02 µM); 0.657 in test [2] (0.06325 µM); 0.437 in test [2] (0.2 µM); 0.863 in test [3] (first compound 0.08 µM); 1.03 in test [3] (first compound 0.253 µM). Besides, the relative viability in test [3] (first compound 0.8 µM) was determined as 1.01; in test [3] (first compound 2.53 µM) it was 1.14; in test [3] (first compound 8 µM), 0.997; in test [4] (first compound 0.002 µM) it was 0.627; in test [4] (first compound 0.006325 µM), 0.684; in test [4] (first compound 0.02 µM), 0.625. Further, the figures for the relative viability in test [4] (first compound 0.06325 µM) and in test [4] (first compound 0.2 µM) were 0.521 and 0.506, respectively.

HCC-366: the relative viability in test [1] (0.08 µM) turned out to be 0.982; in test [1] (0.253 µM), 0.956; in test [1] (0.8 µM), 0.99; in test [1] (2.53 µM), 0.897; in test [1] (8 µM), 1.01; in test [2] (0.002 µM), 0.975. For the same cell line, the relative viability in test [2] (0.006325 µM) stood at 1.04; in test [2] (0.02 µM) it was 1.05; in test [2] (0.06325 µM), 0.734; in test [2] (0.2 µM) it was 0.569; in test [3] (first compound 0.08 µM), 0.306; in test [3] (first compound 0.253 µM), 0.379. Also, the relative viability in test [3] (first compound 0.8 µM) is 0.326; in test [3] (first compound 2.53 µM), 0.411; in test [3] (first compound 8 µM), 0.385; in test [4] (first compound 0.002 µM), 0.104; in test [4] (first compound 0.006325 µM), 0.183; in test [4] (first compound 0.02 µM) it was 0.229. Moreover, the relative viability in test [4] (first compound 0.06325 µM) came out at 0.173; in test [4] (first compound 0.2 µM), 0.147.

On to LU99A, for which the relative viability came to 0.782 in test [1] (0.08 µM); 1.02 in test [1] (0.253 µM); 0.979 in test [1] (0.8 µM); 0.813 in test [1] (2.53 µM); 0.944 in test [1] (8 µM); 0.93 in test [2] (0.002 µM). Moreover, the relative viability in test [2] (0.006325 µM) came to 0.904; in test [2] (0.02 µM), 0.766; in test [2] (0.06325 µM), 0.429; in test [2] (0.2 µM), 0.31; in test [3] (first compound 0.08 µM) it was 0.55; in test [3] (first compound 0.253 µM), 0.519. Moreover, the relative viability in test [3] (first compound 0.8 µM) was found to be 0.618; in test [3] (first compound 2.53 µM), 0.478; in test [3] (first compound 8 µM), 0.493; in test [4] (first compound 0.002 µM), 0.152; in test [4] (first compound 0.006325 µM), 0.197; in test [4] (first compound 0.02 µM) it was 0.2. In addition, the relative viability in test [4] (first compound 0.06325 µM) came out at 0.178; in test [4] (first compound 0.2 µM), 0.18.

Regarding NCI-H647, the relative viability came to 0.943 in test [1] (0.08 µM); 1.01 in test [1] (0.253 µM); 0.996 in test [1] (0.8 µM); 0.895 in test [1] (2.53 µM); 1.02 in test [1] (8 µM); 1.05 in test [2] (0.002 µM). Further, the relative viability in test [2] (0.006325 µM) is 0.824; in test [2] (0.02 µM) it was 0.691; in test [2] (0.06325 µM), 0.254; in test [2] (0.2 µM), 0.208; in test [3] (first compound 0.08 µM), 1.04; in test [3] (first compound 0.253 µM), 1.46. In addition, the relative viability came to 1.05 in test [3] (first compound 0.8 µM); 1.07 in test [3] (first compound 2.53 µM); 1.08 in test [3] (first compound 8 µM); 0.144 in test [4] (first compound 0.002 µM); 0.172 in test [4] (first compound 0.006325 µM); 0.194 in test [4] (first compound 0.02 µM). The relative viability in test [4] (first compound 0.06325 µM) turned out to be 0.154; in test [4] (first compound 0.2 µM), 0.101.

Regarding HCC-78, the relative viability was 0.794 in test [1] (0.08 µM); 0.775 in test [1] (0.253 µM); 0.861 in test [1] (0.8 µM); 0.937 in test [1] (2.53 µM); 0.978 in test [1] (8 µM); 1.06 in test [2] (0.002 µM). Further, the relative viability in test [2] (0.006325 µM) is 0.909; in test [2] (0.02 µM), 0.829; in test [2] (0.06325 µM) it was 0.657; in test [2] (0.2 µM) it was 0.387; in test [3] (first compound 0.253 µM) it was 0.515; in test [3] (first compound 0.8 µM) it was 0.306. Besides, the relative viability in test [3] (first compound 2.53 µM) was determined as 0.411; in test [3] (first compound 8 µM) it was 0.462; in test [4] (first compound 0.002 µM), 0.833; in test [4] (first compound 0.006325 µM), 0.892; in test [4] (first compound 0.02 µM), 0.875; in test [4] (first compound 0.06325 µM), 0.885. Also, in test [4] (first compound 0.2 µM), the relative viability worked out at 0.916.

For the cell line NCI-H1755, the relative viability stood at 0.93 in test [1] (0.08 µM); 1.05 in test [1] (0.253 µM); 0.962 in test [1] (0.8 µM); 0.98 in test [1] (2.53 µM); 0.958 in test [1] (8 µM); 1.04 in test [2] (0.002 µM). For the same cell line, the relative viability in test [2] (0.006325 µM) worked out at 0.976; in test [2] (0.02 µM), 0.963; in test [2] (0.06325 µM), 0.887; in test [2] (0.2 µM), 0.742; in test [3] (first compound 0.08 µM), 0.893; in test [3] (first compound 0.253 µM), 0.915. Also, the relative viability worked out at 0.911 in test [3] (first compound 0.8 µM); 0.883 in test [3] (first compound 2.53 µM); 0.923 in test [3] (first compound 8 µM); 0.414 in test [4] (first compound 0.002 µM); 0.389 in test [4] (first compound 0.006325 µM); 0.455 in test [4] (first compound 0.02 µM). Besides, the relative viability in test [4] (first compound 0.06325 µM) worked out at 0.393; in test [4] (first compound 0.2 µM), 0.412.

The record behind these values is the supplement of paper PMC10307832.
